The values below come from US20250057743A1, “Oral Care Compositions Comprising Dicarboxylic Acid” (The Procter & Gamble Company, priority 2020, published 2025).

One data set in a line: Slurry pH of composition. The class given is physicochemical. Particulars: Table 10, treatments of the enamel softening study (1:3 slurry of toothpaste to water). The source says: The pH of the oral care compositions as described herein can be from about 4 to about 7, from about 4 to about 6, from about 4.5 to about 6.5, or from about 4.5 to about 5.5. The pH of a mouthrinse solution can be determined as the pH of the neat solution. The pH of a dentifrice composition can be determined as a slurry pH, which is the pH of a mixture of the dentifrice composition and water, such as a 1:4, 1:3, or 1:2 mixture of the dentifrice composition and water.

For data set [1] the following is noted: human, 1 %.
Description: The enamel softening method is used to determine the potential of oral care compositions to damage (or not to damage) dental enamel with repeated exposure.
A core of sound human enamel with a diameter of 3-4 mm was extracted from whole human teeth. The cores were mounted in dental acrylic and the surfaces were ground using 600 grit paper. Increasingly fine lapping papers were then used to polish the surface to a 1 um polish. Samples were sonicated in deionized water for 30 min. Enamel specimens were then rinsed with deionized water and wiped to remove any residual polish. Each enamel specimen was inspected and samples with large cracks or uneven calcification were discarded. […]
Also on the day before the experiment, the Vickers hardness of each enamel specimen was measured using a hardness indenter at three separate locations spread across the enamel surface. A 50g load was applied for 10 seconds, and the diagonal lengths of the resulting indents were measured using a 20× magnification objective. […]
On the day following the cycling experiment, the post-cycling hardness was obtained for each specimen using a similar procedure to that described for the pre-cycling hardness measurements. The change in hardness was calculated for each specimen by subtracting the pre-cycling hardness from the post-cycling hardness measurement. […]

SMILES strings stand for the structures.

With `O=C(O)CC(O)(CC(=O)O)C(=O)O` [1% Citric Acid, citric acid], in the data set “Slurry pH of composition”, the “Slurry pH” value is listed as 2.19. In data set [1], the “Δ SMH (change in surface microhardness)” value stood at 175.68.
